For orientation: melting point means the temperature, or range, at which the solid turns liquid. In turn, `COCCc1sc2ncnc(N)c2c1-c1ccc(NC(=O)Nc2ccc(C)cc2)cc1` [Example 110, N-{4-[4-amino-6-(2-methoxyethyl)thieno[2,3-d]pyrimidin-5-yl]phenyl}-N′-(4-methylphenyl)urea] had a melting point of 128 to 132 °C.
With `Cc1ccccc1NC(=O)Nc1ccc(-c2c(C(C)C)sc3ncnc(N)c23)cc1` [Example 12, N-[4-(4-amino-6-isopropylthieno[2,3-d]pyrimidin-5-yl)phenyl]-N′-(2-methylphenyl)urea] the figure was 233 to 234 °C; with `COCCc1sc2ncnc(N)c2c1-c1ccc(NS(=O)(=O)c2ccccc2)cc1` [Example 111, N-{4-[4-amino-6-(2-methoxyethyl)thieno[2,3-d]pyrimidin-5-yl]phenyl}benzenesulfonamide], 206 to 208 °C.
`COCCc1sc2ncnc(N)c2c1-c1ccc(NC(=O)Nc2ccccc2C)cc1` [Example 137, N-{4-[4-amino-6-(2-methoxyethyl)thieno[2,3-d]pyrimidin-5-yl]phenyl}-N′-(2-methylphenyl)urea] returned a melting point of 217 to 219 °C.
With `Nc1ncnc2sc(Cc3ccncc3)c(-c3ccc(NC(=O)Nc4cccc(C(F)(F)F)c4)cc3)c12` [Example 142, N-{4-[4-amino-6-(pyridin-4-ylmethyl)thieno[2,3-d]pyrimidin-5-yl]phenyl}-N′-[3-(trifluoromethyl)phenyl]urea] the figure was 162 to 166 °C; with `Cc1ccc(NC(=O)Nc2ccc(-c3c(Cc4ccccc4)sc4ncnc(N)c34)cc2)cc1` [Example 9, N-[4-(4-amino-6-benzylthieno[2,3-d]pyrimidin-5-yl)phenyl]-N′-(4-methylphenyl)urea], 169 to 173 °C.
With `CC(C)c1sc2ncnc(N)c2c1-c1ccc(NC(=O)c2ccccc2)cc1` [Example 8, N-[4-(4-amino-6-isopropylthieno[2,3-d]pyrimidin-5-yl)phenyl]benzamide] the figure was above 250 °C; with `COCCc1sc2ncnc(N)c2c1-c1ccc(NC(=O)c2ccccc2)cc1` [Example 113, N-{4-[4-amino-6-(2-methoxyethyl)thieno[2,3-d]pyrimidin-5-yl]phenyl}benzamide], 200 to 202 °C.
With `COCCc1sc2ncnc(N)c2c1-c1ccc(NC(=O)Nc2cc(C(F)(F)F)ccc2F)cc1` [Example 140, N-{4-[4-amino-6-(2-methoxyethyl)thieno[2,3-d]pyrimidin-5-yl]phenyl}-N′-[2-fluoro-5-(trifluoromethyl)phenyl]urea] the figure was 209 to 211 °C.
In the case of `Cc1cccc(CC(=O)Nc2ccc(-c3c(CCO)sc4ncnc(N)c34)cc2)c1` [Example 350, N-{4-[4-amino-6-(2-hydroxyethyl)thieno[2,3-d]pyrimidin-5-yl]phenyl}-2-(3-methylphenyl)acetamide], the melting point was in the range of 142 to 144 °C.
`COCCc1sc2ncnc(N)c2c1-c1ccc(NC(=O)Cc2cccc(C)c2)cc1` [Example 112, N-{4-[4-amino-6-(2-methoxyethyl)thieno[2,3-d]pyrimidin-5-yl]phenyl}-2-(3-methylphenyl)acetamide]: the melting point is 200 to 202 °C.
The figure for `Nc1ncnc2sc(CCO)c(-c3ccc(NC(=O)Nc4cccc(C(F)(F)F)c4)cc3)c12` [Example 139, N-{4-[4-amino-6-(2-hydroxyethyl)thieno[2,3-d]pyrimidin-5-yl]phenyl}-N′-[3-(trifluoromethyl)phenyl]urea] is 155 to 158 °C.
For `Cc1ccccc1NC(=O)Nc1ccc(-c2c(Cc3ccccc3)sc3ncnc(N)c23)cc1` [Example 11, N-[4-(4-amino-6-benzylthieno[2,3-d]pyrimidin-5-yl)phenyl]-N′-(2-methylphenyl)urea], the melting point was 245 to 248 °C.
The figure for `Cc1ccccc1NC(=O)Nc1ccc(-c2c(CCO)sc3ncnc(N)c23)cc1` [Example 107, N-{4-[4-amino-6-(2-hydroxyethyl)thieno[2,3-d]pyrimidin-5-yl]phenyl}-N′-(2-methylphenyl)urea] is 159 to 162 °C; for `Nc1ncnc2sc(Cc3cccnc3)c(-c3ccc(NC(=O)Nc4cccc(Cl)c4)cc3)c12` [Example 117, N-{4-[4-amino-6-(pyridin-3-ylmethyl)thieno[2,3-d]pyrimidin-5-yl]phenyl}-N′-(3-chlorophenyl)urea] it is 169 to 172 °C; for `Nc1ncnc2sc(Cc3ccccc3)c(-c3ccc(NS(=O)(=O)c4ccccc4)cc3)c12` [Example 13, N-[4-(4-amino-6-benzylthieno[2,3-d]pyrimidin-5-yl)phenyl]benzenesulfonamide] it is 100 to 105 °C.
